According to patent publication US10131652B2, “Pyrimidinyloxy benzene derivatives as herbicides” (E. I. DU PONT DE NEMOURS AND COMPANY, priority 2014, dated 2018):

Tests used:
Format in all cases: in vivo
[1] = test system: Italian ryegrass (Lolium multiflorum); experiment: Test B pre-/postemergence plant response
How it was run: (§1)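 Greenhouse pots, loam/sand soil; compound formulated with surfactant in non-phytotoxic solvent. Preemergence soil spray and postemergence spray at 1–2 leaf stage run simultaneously. Visual injury, 0–100, about 10 days post-treatment.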

[2] = test system: barnyardgrass (Echinochloa crus-galli); experiment: Test B pre-/postemergence plant response
How it was run: as §1

corn (Zea mays) = experiment: Test B pre-/postemergence plant response
How it was run: as §1

[3] = test system: giant foxtail (Setaria faberii); experiment: Test B pre-/postemergence plant response
How it was run: as §1

kochia (Kochia scoparia) = experiment: Test B pre-/postemergence plant response
How it was run: as §1

[4] = test system: pigweed (Amaranthus retroflexus); experiment: Test B pre-/postemergence plant response
How it was run: as §1

[5] = test system: ragweed (common ragweed, Ambrosia elatior); experiment: Test B pre-/postemergence plant response
How it was run: as §1

[6] = test system: wheat (Triticum aestivum); experiment: Test B pre-/postemergence plant response
How it was run: as §1

[7] = test system: blackgrass (Alopecurus myosuroides); experiment: Test B postemergence plant response
How it was run: (§2)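 Injury was assessed visually about 10 days after treatment, scored from 0 (no effect) to 100 (complete control) by comparison with untreated controls. Test chemicals had been applied postemergence to potted plants at the one- to two-leaf stage, grown in loam soil and sand in a greenhouse.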

[8] = test system: galium (catchweed bedstraw, Galium aparine); experiment: Test B postemergence plant response
How it was run: as §2

[9] = test system: barnyardgrass (Echinochloa crus-galli); experiment: Test C flooded paddy test plant response; conditions: Flood, 250 g ai/ha; scale of 0 to 100 where 0 is no effect and 100 is complete control; 13 to 15 days
How it was run: (§3)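 Plants grown to the 2-leaf stage; pots flooded to 3 cm above soil, test compounds applied directly to paddy water, depth maintained throughout. Greenhouse for 13 to 15 days, then visual rating versus controls on a 0–100 scale (0 no effect, 100 complete control).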

[10] = test system: ducksalad (Heteranthera limosa); experiment: Test C flooded paddy test plant response; conditions: Flood, 250 g ai/ha; scale of 0 to 100 where 0 is no effect and 100 is complete control; 13 to 15 days
How it was run: as §3

rice (Oryza sativa) = experiment: Test C flooded paddy test plant response; conditions: Flood, 250 g ai/ha; scale of 0 to 100 where 0 is no effect and 100 is complete control; 13 to 15 days
How it was run: as §3

[11] = test system: small-flower umbrella sedge (Cyperus difformis); experiment: Test C flooded paddy test plant response; conditions: Flood, 250 g ai/ha; scale of 0 to 100 where 0 is no effect and 100 is complete control; 13 to 15 days
How it was run: as §3

[12] = 31 g ai/ha, Preemergence, 0 to 100 scale where 0 is no effect and 100 is complete control
[13] = 125 g ai/ha, postemergence, 0 to 100 scale, 0 no effect, 100 complete control
[14] = Postemergence, 31 g ai/ha, 0 to 100 scale (0 no effect, 100 complete control)
[15] = Preemergence, 125 g ai/ha, 0 to 100 scale (0 no effect, 100 complete control)

Row | Compound | Plant response rating, Ryegrass, Italian [1, 12] | Plant response rating, Ryegrass, Italian [1, 13] | Plant response rating, Ryegrass, Italian [1, 14] | Ryegrass, Italian plant response rating [1, 15] | Plant response rating, Barnyardgrass [2, 12] | Plant response rating, Barnyardgrass [2, 13] | Plant response rating, Barnyardgrass [2, 14] | Barnyardgrass plant response rating [2, 15] | Plant response rating, Corn (corn (Zea mays); [13]) | Plant response rating, Corn (corn (Zea mays); [14]) | Plant response rating, Foxtail, Giant [3, 12] | Plant response rating, Foxtail, Giant [3, 13] | Plant response rating, Foxtail, Giant [3, 14] | Foxtail, Giant plant response rating [3, 15] | Plant response rating, Kochia (kochia (Kochia scoparia); [12]) | Plant response rating, Kochia (kochia (Kochia scoparia); [13]) | Plant response rating, Kochia (kochia (Kochia scoparia); [14]) | Kochia plant response rating (kochia (Kochia scoparia); [15]) | Plant response rating, Pigweed [4, 12] | Plant response rating, Pigweed [4, 13] | other results
1 | CC(=O)c1cc(-c2ccccc2Oc2ncc(Cl)cn2)on1 [Compound 218] | 0 | 0 | 0 | 0 | 0 | 0 | 0 | 50 | 0 | 0 | 0 | 0 | 0 | 60 | 0 | 0 | 0 | 0 | 0 | 40 | Plant response rating, Pigweed [4, 14]: 0; Pigweed plant response rating [4, 15]: 90; Plant response rating, Ragweed [5, 12]: 0; Plant response rating, Ragweed [5, 13]: 0; Plant response rating, Ragweed [5, 14]: 0; Ragweed plant response rating [5, 15]: 0; Plant response rating, Wheat [6, 13]: 0; Plant response rating, Wheat [6, 14]: 0; Plant response rating, Blackgrass [7, 13]: 0; Plant response rating, Blackgrass [7, 14]: 0; Plant response rating, Galium [8, 13]: 10; Plant response rating, Galium [8, 14]: 0; Barnyardgrass plant response rating [9]: 0; Ducksalad plant response rating [10]: 0; Rice plant response rating (rice (Oryza sativa)): 0; Sedge, Umbrella plant response rating [11]: 0
2 | COc1ccnc(-c2ccccc2Oc2ncc(Cl)cn2)c1 [Compound 219] | 0 | 0 | 0 | 0 | 0 | 0 | 0 | 0 | 0 | 0 | 0 | 0 | 0 | 0 | 0 | 0 | 0 | 0 | 0 | 10 | Plant response rating, Pigweed [4, 14]: 10; Pigweed plant response rating [4, 15]: 0; Plant response rating, Ragweed [5, 12]: 0; Plant response rating, Ragweed [5, 13]: 30; Plant response rating, Ragweed [5, 14]: 20; Ragweed plant response rating [5, 15]: 0; Plant response rating, Wheat [6, 13]: 0; Plant response rating, Wheat [6, 14]: 0; Plant response rating, Blackgrass [7, 13]: 0; Plant response rating, Blackgrass [7, 14]: 0; Plant response rating, Galium [8, 13]: 30; Plant response rating, Galium [8, 14]: 20; Barnyardgrass plant response rating [9]: 0; Ducksalad plant response rating [10]: 0; Rice plant response rating (rice (Oryza sativa)): 0; Sedge, Umbrella plant response rating [11]: 0
3 | N#Cc1cc(-c2c(F)cccc2Oc2ncc(Cl)cn2)no1 [Compound 222] | 0 | 0 | 0 | 0 | 0 | 0 | 0 | 0 | 30 | 0 | 0 | 0 | 0 | 0 | 0 | 30 | 20 | 0 | 20 | 100 | Plant response rating, Pigweed [4, 14]: 30; Pigweed plant response rating [4, 15]: 90; Plant response rating, Ragweed [5, 12]: 0; Plant response rating, Ragweed [5, 13]: 20; Plant response rating, Ragweed [5, 14]: 0; Ragweed plant response rating [5, 15]: 0; Plant response rating, Wheat [6, 13]: 20; Plant response rating, Wheat [6, 14]: 0; Plant response rating, Blackgrass [7, 13]: 10; Plant response rating, Blackgrass [7, 14]: 0; Plant response rating, Galium [8, 13]: 90; Plant response rating, Galium [8, 14]: 30; Barnyardgrass plant response rating [9]: 0; Ducksalad plant response rating [10]: 30; Rice plant response rating (rice (Oryza sativa)): 0; Sedge, Umbrella plant response rating [11]: 0
4 | N#Cc1cc(-c2ccccc2Oc2ncc(Cl)cn2)on1 [Compound 223] | 0 | 0 | 0 | 0 | 0 | 10 | 0 | 0 | 0 | 0 | 0 | 10 | 0 | 0 | 0 | 10 | 0 | 0 | 0 | 60 | Plant response rating, Pigweed [4, 14]: 20; Pigweed plant response rating [4, 15]: 10; Plant response rating, Ragweed [5, 12]: 0; Plant response rating, Ragweed [5, 13]: 10; Plant response rating, Ragweed [5, 14]: 0; Ragweed plant response rating [5, 15]: 0; Plant response rating, Wheat [6, 13]: 0; Plant response rating, Wheat [6, 14]: 0; Plant response rating, Blackgrass [7, 13]: 0; Plant response rating, Blackgrass [7, 14]: 0; Plant response rating, Galium [8, 13]: 50; Plant response rating, Galium [8, 14]: 30; Barnyardgrass plant response rating [9]: 0; Ducksalad plant response rating [10]: 65; Rice plant response rating (rice (Oryza sativa)): 0; Sedge, Umbrella plant response rating [11]: 70
